ChEMBL document CHEMBL1151847, “In vitro skin diffusion study of pure forskolin versus a forskolin-containing Plectranthus barbatus root extract” (J Nat Prod, 2009)

Tests used:
Zone of skin [1] = experiment: Permeability across guinea pig skin assessed as cumulative drug content applied topically after 24 hrs by LC-MS analysis; format: ADME, tissue-based, Cavia porcellus; conditions: topical_or_ocular
Zone of skin [2] = experiment: Permeability across guinea pig skin assessed as permeation lag time applied topically after 24 hrs by LC-MS analysis; format: ADME, tissue-based, Cavia porcellus; conditions: topical_or_ocular
[3] = Ratio of permeability flux across guinea pig skin to permeability flux across human skin; format: ADME, tissue-based, Zone of skin
Zone of skin [4] = experiment: Permeability across guinea pig skin assessed as drug content per gram of wet tissue applied topically after 24 hrs by LC-MS analysis; format: ADME, tissue-based, Cavia porcellus; conditions: topical_or_ocular
Zone of skin [5] = experiment: Permeability across human skin assessed as drug content per gram of wet tissue applied topically after 24 hrs by LC-MS analysis; format: ADME, tissue-based
Zone of skin [6] = experiment: Permeability across human skin assessed as permeation lag time applied topically after 24 hrs by LC-MS analysis; format: ADME, tissue-based
Zone of skin [7] = experiment: Permeability across human skin assessed as cumulative drug content applied topically after 24 hrs by LC-MS analysis; format: ADME, tissue-based

C=C[C@@]1(C)CC(=O)[C@]2(O)[C@@]3(C)[C@@H](O)CCC(C)(C)[C@@H]3[C@H](O)[C@H](OC(C)=O)[C@@]2(C)O1 [COLFORSIN]
Drug uptake (Zone of skin [1]): 75.6 nmol | Activity (Zone of skin [2]): 2.8 h | Ratio [3]: 19 | Drug uptake (Zone of skin [4]): 5.8 µmol | Drug uptake (Zone of skin [5]): 20 µmol | Activity (Zone of skin [6]): 1.5 h | Drug uptake (Zone of skin [7]): 3.8 nmol
